According to patent US20190298664A1, “METHOD AND KIT FOR MYOCARDIAL REPERFUSION, AND METHOD FOR ATTENUATING OR REDUCING MYOCARDIAL REPERFUSION INJURY” (Academia Sinica, priority 2018, published 2019):

Columns and labels:
I/R mice [1] = assay: Serum troponin I measurement in I/R mice; format: in vivo, mouse; details: 2 mg/kg IP
Method: (§1) We anesthetized the mouse with 5% isoflurane mixed with room air until loss of sensation of pain and then maintained the mouse in anesthesia status with 2% isoflurane mixed with room air through the whole procedure. The mouse's body temperature was maintained at 37° C. by a heating pad. After the mouse was intubated, we provided artificial ventilation to the mouse with a small animal ventilator. Then the chest cavity was opened at the second intercostal space and homemade chest retractors were utilized to widen the incision. We pulled the pericardium apart carefully and exposed the left anterior descending artery (LAD). A 7-0 silk was put underneath the LAD at the position of the tip of the left auricle, a 6 mm length of PE-10 tube was put on the surface of the LAD, and then a double knot was made to occlude the blood flow of LAD. The success of ligation was confirmed by paling the anterior wall of the LV. For the reperfusion group, the LAD knot would be untied for the purpose of reperfusion after 1 hour of ischemia. For the sham operation group, all procedures were the same except for the knot that occluded the LAD flow. After the successful procedure, we left the silk in situ, closed the chest cavity and weaned the animal from the ventilator.
Before the mouse was sacrificed, blood was drawn from the facial vein. The blood was put in the room temperature for 30 minutes and then centrifuged at 4° C. for 15 minutes at 5000 rpm. After centrifuging, the serum is collected for troponin I measurement with troponin I ELISA kit (KT-469, Kamiya Biomedical Company) according to the manufacture's protocol.

[2] = tested on: overall PTP activity in H9C2 cells; assay: Overall PTP activity (orthovanadate-sensitive fraction) by pNPP assay in H9C2 cells; format: cell-based; details: 5, 10 and 20 μmol/L for 20 min
Method: For heart tissue: At the end of the treatment, the left ventricle of mouse heart is gently homogenized in ice-cold RIPA buffer with Ser/Thr phosphatase inhibitors inside. Then the samples are centrifuged at 16,100×g for 10 min at 4° C. to remove the debris. Tissue extract (1 mg) is incubated with pNPP (2 mM) in reaction buffer at 37° C. for 60 min on a shaker. At the end of incubation, the reaction is terminated by addition of the same volume of 0.1 N NaOH. The released p-nitrophenolate ion is measured by spectrophotometry reading the absorbance at 405 nm. For H9C2 cell: At the end of the treatment, the cells are collected in ice-cold RIPA buffer with Ser/Thr phosphatase inhibitors inside. Then the samples are centrifuged at 16,100×g for 10 min at 4° C. to remove the debris. The cell lysate is incubated with pNPP […] in reaction buffer at 37° C. for 90 min on a shaker. The reaction is terminated by adding the same volume of 0.1 N NaOH. The released p-nitrophenolate ion is measured by spectrophotometry reading the absorbance at 405 nm. H9C2 cell lines were purchased from ATCC® organization, U.S. Cell cultures were maintained in Dulbecco modified Eagle medium (DMEM) supplemented with 10% fetal bovine serum (FBS) and 1% Penicillin/Streptomycin at 37° C. incubator in a 5% CO2 humid atmosphere.

[3] = tested on: phosphorylation of Paxillin and p130Cas in H9C2 cells; assay: Immunoblotting of H9c2 total lysates for pTyr of Paxillin and p130Cas; format: cell-based; details: H9C2 cells treated with indicated concentrations
Method: Hearts from mice received different treatment were gently homogenized in ice-cold RIPA buffer [250 mM Tris-HCl pH 7.4, 750 mM NaCl, detergent mix (5% NP-40, 2.5% Na-deoxycholate and 0.5% SDS), and 1× protease inhibitor cocktail (EDTA free)] containing phosphatase inhibitors (2 mM Na3VO4, 10 mM NaF, and 10 mM Na2P2O7). The homogenates were centrifuged at 16,100×g at 4° C. for 10 minutes to remove the debris. Protein concentrations were determined by Bradford protein assay. Equal amounts of protein extract from those mice were separated by SDS-PAGE on an 8% or 10% polyacrylamide gel and then transferred to PVDF membrane. Membranes were incubated with indicated primary antibody at 4° C. overnight followed by incubated with secondary antibodies for 1 hour at room temperature. The protein abundance was detected by the signal intensity of each specific band. H9C2 cell lines were purchased from ATCC® organization, U.S. Cell cultures were maintained in Dulbecco modified Eagle medium (DMEM) supplemented with 10% fetal bovine serum (FBS) and 1% Penicillin/Streptomycin at 37° C. incubator in a 5% CO2 humid atmosphere.

I/R mice [4] = assay: Histopathology (H&E, Masson Trichrome) one week post-I/R in mice; format: in vivo, mouse; details: 2 mg/kg IP; one week after I/R
Source text: as §1, with “(A) The representative echocardiographic images, (B) the quantification of ejection fraction, (C) the representative histopathologic […]) the quantification of infarct size were obtained from the mice with the indicated treatments for one week post-I/R (n=8). (E) The representative enlarged H&E stain obtained from mice one week post-I/R. The areas highlighted in yellow boxes (left panel) are shown by the enlarged view (right panel). (F) The representative Masson Trichrome stain obtained from mice one week post-I/R. The black arrows indicate the location of inflammation or fibrosis in the myocardium. I/R: I/R-mice treated with the vehicle control, I/R+A: […] treated with Auranofin. (B) and (D) **P<0.01. We anesthetized” for “We anesthetized”, “confirmed by […] anterior wall” for “confirmed by paling the anterior wall”

SMILES: CC(=O)OC[C@H]1O[C@@H]([S-])[C@H](OC(C)=O)[C@@H](OC(C)=O)[C@@H]1OC(C)=O.CCP(CC)CC.[Au+] [Auranofin, auranofin]
- Serum troponin I level (I/R mice [1]; 4 hours post-I/R): reduced
- Serum troponin I level (I/R mice [1]; one day after reperfusion): lower
- Overall PTP activity in H9C2 cells [2]: decreased
- Phosphorylation on the specific Tyr residue in Paxillin or p130Cas [3]: increase
- Fibrosis (I/R mice [4]): less
- Infarct size (pathological study, H&E) (I/R mice [4]): smaller
- Infiltrating inflammatory cells (I/R mice [4]): fewer
- Myocardial thinning over the injured area (I/R mice [4]): a minor degree
